Experiments:
Type in all cases: binding
[1] = target: T1, adenylate kinase (AK_2+, AK) (Escherichia coli, UniProt P69441); assay: single-molecule nanopore (ClyA-AS) recording, Hill fit of LID-closed fraction; conditions: minor component; type II blockades (12 ± 6% of blockades, alternative conformer); Hill coefficient 1.7; 400 mM KCl, 15 mM Tris, 2 mM MgCl2, pH 7.5, 22 °C, -90 mV
T1 construct: gene adk; full-length AK (214 residues) with C-terminal extension GKK plus Strep-tag WSHPQFEK kept; pET22b, E. coli BL21(DE3); single enzyme trapped in ClyA-AS nanopore

[2] = target: T1, adenylate kinase (AK_2+, AK); assay: as above
[3] = target: T1, adenylate kinase (AK_2+, AK); assay: single-molecule nanopore (ClyA-AS) recording, ligand-induced current levels M1-M4; conditions: inhibitor; added cis or trans; 400 mM KCl, 15 mM Tris, 2 mM MgCl2, pH 7.5, 22 °C, -90 mV

T1 sequence (P69441 whole entry): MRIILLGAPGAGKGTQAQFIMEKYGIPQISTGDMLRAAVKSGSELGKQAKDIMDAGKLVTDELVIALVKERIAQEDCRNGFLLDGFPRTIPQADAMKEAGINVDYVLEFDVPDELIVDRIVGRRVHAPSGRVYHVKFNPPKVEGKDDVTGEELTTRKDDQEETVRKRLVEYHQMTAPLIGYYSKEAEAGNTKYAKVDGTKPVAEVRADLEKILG

Row | KD [1] [µM] | Kd [2] [µM] | Compound | single-molecule nanopore (ClyA-AS) recording, ligand-induced current levels M1-M [3]
1 | 123.2 ± 18.1 | 45.4 ± 1.6 | Nc1ncnc2c1ncn2[C@@H]1O[C@H](COP(=O)(O)OP(=O)(O)O)[C@@H](O)[C@H]1O [ADP] | 
2 |  |  | Nc1ncnc2c1ncn2[C@@H]1O[C@H](COP(=O)(O)OP(=O)(O)OP(=O)(O)OP(=O)(O)OP(=O)(O)OC[C@H]2O[C@@H](n3cnc4c(N)ncnc43)[C@H](O)[C@@H]2O)[C@@H](O)[C@H]1O [Ap5A, P^1,P^5-Di-(adenosine-5’)-pentaphosphate] | The addition of Ap5A to either the cis or trans side of the nanopore induced

From paper PMC11582565, “Allostery can convert binding free energies into concerted domain motions in enzymes” (Nature Communications, 2024)
